Measured values reported in patent publication US20080113915A1, “SAPAP3 knockout mouse and clinical modeling associated with the SAPAP3 gene” (Duke University, priority 2006, published 2008).

Legend:
SAPAP3 knockout mice [1] = assay: Videotaped grooming behaviour scoring after Fluoxetine treatment; format: in vivo, mouse; conditions: 5 mg/kg daily intraperitoneal, after six days, vs SAPAP3 knockout vehicle control group
Method: To ascertain the source of the lesions quantitative, video studies of the knockout mice were performed. Groups of 10 wild type mice and 10 knockout mice were housed such that each mouse was isolated in a single cage. Following an acclimatization period to individual housing, each mouse was videotaped for 24 hours. Three, four-hour sections (10 AM-2 PM, 6 PM-10 PM, and 2 AM-6 AM) of each 24-hour period were watched and scored for a panel of behaviors: grooming, drinking/eating, sleeping, rearing, digging/shifting, or alert/active. When analyzed on either a “time spent” or “number of bouts engaged in” basis, it was obvious that SAPAP3 knockout mice groomed far more than their wild type counterparts in every time period examined (see FIGS. 3 and 4).
Two cohorts of eight SAPAP3 knockout mice and two cohorts of eight wild type mice were housed in isolation and allowed to acclimate as in Example 2. One cohort of each genotype served as an experimental group and the other as a vehicle control group. The experimental groups were given a daily intraperitoneal injection of 5 mg/kg Fluoxetine for fourteen days. The control groups were given a daily vehicle injection under the same conditions.
After six days, mice from each group were individually videotaped and their behaviors scored as in Example 2. […]

SAPAP3 knockout mice [2] = assay: Light-dark box emergence test after Fluoxetine treatment; format: in vivo, mouse; conditions: after 6 days of treatment with 5 mg/kg, intraperitoneal
SAPAP3 knockout mice [3] = assay: Semi-quantitative scoring of lesion severity (scale 0-4); format: in vivo, mouse
Method: Four cohorts of eight SAPAP3 knockout mice and four cohorts of eight wild type mice were housed in isolation and allowed to acclimate as above. One cohort of each genotype served as a 5 mg/kg Fluoxetine experimental group, one as a 10 mg/kg Fluoxetine experimental group, one as a vehicle control group, and one as an uninjected control group.

SAPAP3 knockout animals = conditions: mouse, in vivo, 10 mg/kg
[4] = share of SAPAP3 KO mice, Fluoxetine groups (5 and 10 mg/kg) combined, at two weeks

For `CNCCC(Oc1ccc(C(F)(F)F)cc1)c1ccccc1` (stereo not shown) [Fluoxetine], the bouts of grooming (SAPAP3 knockout mice [1]) was “far fewer bouts of grooming”, the “performance on the light-dark box emergence test (latency to leave dark chamber)” value (SAPAP3 knockout mice [2]) was “significantly improved” and the “lesion severity (scale of 0-4)” value (SAPAP3 knockout mice [3]; SAPAP3 knockout mice, 5 and 10 mg/kg groups combined vs vehicle and uninjected groups combined, over a 2 week period) was “stabilized or improved lesions”. The “Lesion severity: Improve” value (SAPAP3 knockout mice [3]; [4]) was 28.6%, the “Lesion severity: No Change” value (SAPAP3 knockout mice [3]; [4]) was 71.4% and the “Lesion severity: Worse” value (SAPAP3 knockout mice [3]; [4]) was 0%. For the same compound, the “toxicity to SAPAP3 knockout animals relative to wild type controls” value (SAPAP3 knockout animals) was “progressively more toxic”.
